According to US12338287B2, “Treatment of cancer using a CD33 chimeric antigen receptor” (Novartis AG, priority 2014, dated 2025):
Where two headings read alike, the source gives them in different places.

Legend:
[1] = test system: huCAR19 CAR T cells; assay: CAR T cell expansion in vivo with RAD001 (FACS); set-up: species or system NSG mice; conditions: lowest doses of RAD001, daily oral; FIG. 57
Protocol: CAR T cell dosing: Mice were administered 5×10^6 CAR T cells 7 days after tumor implantation. Cells were partially thawed in a 37 degree Celsius water bath and then completely thawed by the addition of 1 ml of cold sterile PBS to the tube containing the cells. The thawed cells were transferred to a 15 ml falcon tube and adjusted to a final volume of 10 mls with PBS. The cells were washed twice at 1000 rpm for 10 minutes each time and then counted on a hemocytometer. T cells were then resuspended at a concentration of 50×10^6 CAR T cells per ml of cold PBS and kept on ice until the mice were dosed. The mice were injected intravenously via the tail vein with 100 μl of the CAR T cells for a dose of 5×10^6 CAR T cells per mouse. Eight mice per group were treated either with 100 μl of PBS alone (PBS), or humanized CD19 CAR T cells.
(§1) RAD001 dosing: A concentrated micro-emulsion of 50 mg equal to 1 mg RAD001 was formulated and then resuspended in D5W (dextrose 5% in water) at the time of dosing. Mice were orally dosed daily (via oral gavage) with 200 μl of the desired doses of RAD001.
Based on these doses, huCAR19 CAR T cells were dosed with and without RAD001 to determine the proliferative ability of these cells. The highest dose used was 3 mg/kg based on the levels of RAD001 in the blood 24 hours after dosing. […] Mice were monitored via FACS for T cell expansion.

[2] = test system: CAR-expressing, transduced T cells; assay: CART proliferation in co-culture with Nalm-6 cells in presence of RAD001; type: cell-based; conditions: CARTs co-cultured with Nalm-6 cells, different concentrations of RAD001, 4 days
Protocol: CARTs were co-cultured with Nalm-6 cells in the presence of different concentrations of RAD001. The number of CAR-positive CD3-positive T cells (black) and total T cells (gray) was assessed after 4 days of co-culture.

[3] = test system: humanized CD19 CART cells; assay: In vivo proliferation of humanized CD19 CART cells with and without RAD001; conditions: 0.003 mg/kg daily with huCTL019; CD4+ and CD8+ CAR T cells
Protocol: FIGS. 57A and 57B show in vivo proliferation of humanized CD19 CART cells with and without RAD001 dosing. […] Circles denote PBS; squares denote huCTL019; triangles denote huCTL019 with 3 mg/kg RAD001; inverted triangles denote huCTL019 with 0.3 mg/kg RAD001; diamonds denote huCTL019 with 0.03 mg/kg RAD001; and circles denote huCTL019 with 0.003 mg/kg RAD001.

[4] = test system: NALM6-luc tumors; assay: RAD001 alone on NALM6-luc tumor growth; type: in vivo, NSG mice; conditions: daily oral dosing of RAD001 alone; FIG. 55
Protocol: NALM6-luc cells: The NALM6 human acute lymphoblastic leukemia (ALL) cell line was developed from the peripheral blood of a patient with relapsed ALL. The cells were then tagged with firefly luciferase. These suspension cells grow in RPMI supplemented with 10% heat inactivated fetal bovine serum.
Mice: 6 week old NSG (NOD.Cg-Prkdc^scidIl2rg^tmIWjl/SzJ) mice were received from the Jackson Laboratory (stock number 005557).
Tumor implantation: NALM6-luc cells were grown and expanded in vitro in RPMI supplemented with 10% heat inactivated fetal bovine serum. The cells were then transferred to a 15 ml conical tube and washed twice with cold sterile PBS. NALM6-luc cells were then counted and resuspended at a concentration of 10×10^6 cells per milliliter of PBS. The cells were placed on ice and immediately (within one hour) implanted in the mice. NALM6-luc cells were injected intravenously via the tail vein in a 100 μl volume, for a total of 1×10^6 cells per mouse.
as §1

[5] = test system: huCART19 cells co-cultured with Nalm-6; assay: Effect of RAD001 on CART proliferation, 4 day co-culture; type: cell-based, human
Protocol: To evaluate the functionality of CARTs, the T cells are thawed and counted, and viability is assessed by Cellometer. The number of CAR-positive cells in each culture is normalized using non-transduced T cells (UTD). The impact of RAD001 on CARTs was tested in titrations with RAD001, starting at 50 nM. The target cell line used in all co-culture experiments is Nalm-6, a human pre-B cell acute lymphoblastic leukemia (ALL) cell line expressing CD19 and transduced to express luciferase.
For measuring the proliferation of CARTs, T cells are cultured with target cells at a ratio of 1:1. The assay is run for 4 days, when cells are stained for CD3, CD4, CD8 and CAR expression. The number of T cells is assessed by flow cytometry using counting beads as reference.

[6] = RAD001 PK analysis in tumor bearing mice; type: in vivo, NSG mice; conditions: for concentration at 24 h: NSG, mouse, whole blood
Protocol: as §1
PK analysis: Mice were dosed daily with RAD001 starting 7 days post tumor implantation. Dosing groups were as follows: 0.3 mg/kg, 1 mg/kg, 3 mg/kg, and 10 mg/kg. Mice were bled on days 0 and 14 following the first and last dose of RAD001, at the following time points for PK analysis: 15 minutes, 30 minutes, 1 hour, 2 hours, 4 hours, 8 hours, 12 hours, and 24 hours.

[7] = target: hsCD33 (Homo sapiens, UniProt P20138); assay: Cell surface scFv on JNL cells detected with recombinant Fc-tagged hsCD33; type: binding; conditions: recombinant Fc-tagged hsCD33, PE secondary antibody; relative to GFP or CD19 scFv JNL cells
Protocol: FIG. 27 is an image depicting the cell surface expression of scFvs on a Jurkat T cell line, which contains a luciferase reporter driven by an NFAT-regulated promoter (termed JNL cells). JNL cells were transduced with a lentiviral vector expressing a cDNA encoding GFP, a scFv that binds to CD19, or cDNAs that encode an scFv, which was raised against hsCD33. The cell surface expression of individual scFv's on JNLs was detected by incubating cells with recombinant Fc-tagged hsCD33 followed by incubation with an Fc-specific secondary antibody conjugated to phycoerythrin.
To depict the cell surface expression of scFv's on a Jurkat T cell line, which contains a luciferase reporter driven by an NFAT-regulated promoter (termed JNL cells), JNL cells were transduced with a lentiviral vector expressing a cDNA encoding GFP, an scFv that binds to CD19, or cDNAs that encode an scFv, which was raised against hsCD33 (FIG. 27). The cell surface expression of individual scFv's on JNLs was detected by incubating cells with recombinant Fc-tagged hsCD33 followed by incubation with an Fc-specific secondary antibody conjugated to phycoerythrin.

[8] = test system: protein L; assay: Protein L binding of scFv on JNL cells; conditions: data not shown

hsCD33, sequence (P20138 18-259 limits assumed): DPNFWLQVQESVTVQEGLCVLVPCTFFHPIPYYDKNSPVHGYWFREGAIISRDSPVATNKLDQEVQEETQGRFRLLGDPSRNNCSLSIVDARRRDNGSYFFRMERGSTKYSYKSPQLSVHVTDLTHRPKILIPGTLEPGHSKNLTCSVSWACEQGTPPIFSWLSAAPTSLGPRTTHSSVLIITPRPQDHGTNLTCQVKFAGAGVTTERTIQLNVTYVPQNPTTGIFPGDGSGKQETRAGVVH

Row | Molecule | Proliferation of the CAR T cells in vivo [1] | Proliferation of CAR-expressing, transduced T cells [2] | CAR T cell proliferation in vivo [3] | Growth of NALM6-luc tumors [4] | Proliferation of huCART19 cells ([5]; 0.0032 and 0.016 nM RAD001, 4 day co-culture with Nalm-6, FIG. 54) | RAD001 concentration at which huCART19 cells expanded ([5]; 4 day co-culture with Nalm-6) | concentration at 24 h ([6]; oral, 0.3 mg/kg, 24 hours after the final dose of RAD001, read-out: Concentration of RAD001) | concentration at 24 h ([6]; 24 hours after dosing, 0.3 mg/kg oral, day 0 and day 14, read-out: RAD001 concentrations in the blood) | Stability in the blood ([6]; tumor bearing mice, FIGS. 56A, 56B) | Binding to hsCD33 (cell surface scFv on JNL cells) [7] | Binding to protein L [8]
1 | CO[C@H]1C[C@@H]2CC[C@@H](C)[C@@](O)(O2)C(=O)C(=O)N2CCCC[C@H]2C(=O)O[C@H]([C@H](C)C[C@@H]2CC[C@@H](OCCO)[C@H](OC)C2)CC(=O)[C@H](C)/C=C(\C)[C@@H](O)[C@@H](OC)C(=O)[C@H](C)C[C@H](C)/C=C/C=C/C=C/1C [RAD001, (1R,9S,12S,15R,16E,18R,19R,21R,23 S,24E,26E,28E,30S,32S,35R)-1,18-dihydroxy-12-{(1R)-2-[(1 S,3R,4R)-4-(2-hydroxyethoxy)-3-methoxycyclohexyl]-1-methylethyl}-19,30-dimethoxy-15,17,21,23,29,35-hexamethyl-11,36-dioxa-4-aza-tricyclo[30.3.1.04,9]hexatriaconta-16,24,26,28-tetraene-2,3,10,14,20-pentaone] | enhanced proliferation of the CAR T cells | enhanced by low doses of RAD001 | enhancement in CAR T cell proliferation, above the normal level of huCAR19 proliferation | did not have an impact on the growth of NALM6-luc tumors | proliferation was higher than observed without the addition of RAD001 | less than 0.016 nM | > 10 nM | > 10 nM | fairly stable in the blood |  | 
2 | CD33-8: fully human anti-CD33 scFv CAR with 4-1BB and CD3zeta; full CAR SEQ ID NO: 55, scFv SEQ ID NO: 46 (protein) MALPVTALLLPLALLLHAARPQVQLVQSGAEVKKPGASVRVSCKASGYMFTDFFIHWVRQAPGQGLEWMGWINPNSGVTKYAQKFQGRVTMTRNTSISTAYMELSSLRSEDTAVYYCATWYSSGWYGIANIWGQGTMVTVSSASGGGGSGGGGSGGGGSDIQLTQSPSSLSASVGDRVTITCQASHDISNYLHWYQQKPGKAPKLLIYDASNLETGVPSRFTGSGSGTDFTLTIRSLQPEDVAAYYCQQSDDLPHTFGQGTKVDIKTTTPAPRPPTPAPTIASQPLSLRPEACRPAAGGAVHTRGLDFACDIYIWAPLAGTCGVLLLSLVITLYCKRGRKKLLYIFKQPFMRPVQTTQEEDGCSCRFPEEEEGGCELRVKFSRSADAPAYKQGQNQLYNELNLGRREEYDVLDKRRGRDPEMGGKPRRKNPQEGLYNELQKDKMAEAYSEIGMKGERRRGKGHDGLYQGLSTATKDTYDALHMQALPPR |  |  |  |  |  |  |  |  |  | lacked appreciable binding to either hsCD33 or protein L | lacked appreciable binding to either hsCD33 or protein L
